{"source": "patent US20250333733A1", "about": "“NOVEL TARGETS AGAINST OVARIAN CANCER” (UNIVERSITY OF PUERTO RICO, priority 2022, published 2025)", "key": {"[1]": {"tested_on": "SKOV3ip1 cells", "test": "Cell viability, Alamar blue, siRNA", "type": "cell-based, human", "conditions": "SKOV3ip1, any siRNA concentration tested, vs NC-siRNA", "procedure": "OVCAR3CIS cells (3.0×10^4 cells/mL) or SKOV3ip1CIS (3.0×10^4 cells/mL) were seeded into 12-well plates. Twenty-four hours later, cells were transfected with 100 nM (final concentration) of each siRNA. The next day, 400 cells (OVCAR3CIS) or 1,000 cells (SKOV3ip1CIS) were seeded into 6-well plates and incubated for seven days, fixed and stained with 0.5% crystal violet in methanol. Colonies of at least 50 cells were counted using a light microscope (CKX41: Olympus, Center Valley, PA, USA) with a total magnification of 40x. For cell viability assays, OVCAR3 and OVCAR3CIS (3.0×10^4 cells/mL) or SKOV3ip1and SKOV3ip1CIS (3.5×10^4 cells/mL) were seeded into 96-well plates, and 24 hours later, siRNA transfection was performed as described above. The next day, the transfection mix was replaced with cisplatin (CIS) (2.5 uM final concentration dissolved in regular cell culture media) and after forty-eight hours, the medium was removed, and Alamar blue dye (Invitrogen, Thermo Fisher Scientific, Eugene, OR, USA) was added following the manufacturer's instructions. Optical density (OD) was measured, and percentages of cell viability were calculated after blank OD subtraction. Untreated cells were assessed as 100% cell viability."}, "[2]": {"tested_on": "SKOV3ip1CIS cells", "test": "Colony formation assay after siRNA transfection", "type": "cell-based, human", "conditions": "SKOV3ip1CIS (FIG. 8B)", "procedure": "SiRNA ON-TARGET plus SMARTpool (a mixture of 4 siRNA as a single tube) and a negative control siRNA (NC-siRNA) (Sigma-Aldrich) were used for transfection studies. CASC10, was targeted by using two siRNAs targeting different regions of the CASC10 RNA (e.g., CASC10-siRNA (1) and CASC10-siRNA (2)). OVCAR3CIS or SKOV3ip1CIS cells were seeded into 12-well plates at 3.0×10^4 cells/mL. The next day, siRNAs were mixed with HiPerfect transfection reagent (Qiagen, Valencia, CA) at a 1:2 ratio (SIRNA: HiPerfect) in serum and antibiotic-free Opti-MEM medium (Gibco) and added to the cells. After twenty-four hours the media was replaced by regular culture media, and cells were cultured and used for further experiments. To assess siRNA transfection efficiency, cells were collected 24 hours after siRNA transfection.\nOVCAR3CIS cells (3.0×10^4 cells/mL) or SKOV3ip1CIS (3.0×10^4 cells/mL) were seeded into 12-well plates. Twenty-four hours later, cells were transfected with 100 nM (final concentration) of each siRNA. […] Colonies of at least 50 cells were counted using a light microscope (CKX41: Olympus, Center Valley, PA, USA) with a total magnification of 40x. […] Optical density (OD) was measured, and percentages of cell viability were calculated after blank OD subtraction. Untreated cells were assessed as 100% cell viability."}, "[3]": {"tested_on": "SKOV3IP1CIS", "test": "Matrigel transwell invasion assay", "type": "cell-based, human", "procedure": "Cell invasion was measured using the Matrigel transwell method. OVCAR3CIS (3.0×10^4 cells/mL) or SKOVip1CIS (3.5×10^4 cells/mL) were seeded into 10 cm Petri dishes and transfected with siRNAs. Twenty-four hours later, serum-free matrigel (BD Biosciences CA, USA) was added onto the upper chambers of 24-well plates and incubated at 37° C. for polymerization. Transfected cells were collected and resuspended in serum-free and re-seeded onto the Matrigel-coated chambers. Medium containing 10% FBS was added to the lower area of the wells, and the plates incubated for 48 hours at 37° C. The medium was removed, and cells that invaded through the matrigel fixed and stained using ProtocolHema 3 Stain Set (Fisher Scientific MI, USA). Invaded cells were microscopically counted using a digital camera to capture images at a 20× resolution. The percentage of cell invasion was calculated using the NC-SIRNA condition as 100% cell invasion."}, "[4]": {"tested_on": "OVCAR3CIS", "test": "Cell cycle progression by flow cytometry", "type": "cell-based", "conditions": "48 hours post-transfection", "procedure": "To assess cell cycle progression, OVCAR3CIS (3.0×10^4 cells/mL) or SKOV3ip1CIS (3.5×10^4 cells/mL) were seeded into 10 cm Petri dishes and transfected with NC-siRNA or CASC10-siRNA (2). Forty-eight hours later, attached cells were collected, washed in ice-cold PBS, fixed with 70% cold ethanol, and stored at 4° C. Cells were then washed with ice-cold PBS, resuspended in propidium iodide (PI)/RNase Staining Buffer, incubated in the dark for 15 minutes at room temperature, and then analyzed by flow cytometry in BD C6 Accuri (CA, USA). Accuri's software was used to determine the percentage of cells in each cell cycle phase."}, "[5]": {"tested_on": "OVCAR3CIS cells", "test": "Western blot of apoptotic-related and cell-cycle related proteins", "type": "cell-based", "conditions": "vs NC-siRNA", "procedure": "Cell pellets were lysed with complete lysis buffer and total protein concentration […]. Protein samples were separated by SDS-PAGE, blotted onto nitrocellulose membranes, blocked in either 5% non-fat dry milk (Bio-Rad) or 5% BSA (HyClone), and probed with the appropriate dilution of corresponding primary antibody. Membranes were rinsed and incubated with corresponding HRP-conjugated secondary antibody, followed by enhanced chemiluminescence and autoradiography."}, "[6]": {"tested_on": "OVCAR3CIS cells", "test": "RNA-seq after siRNA-mediated CASC10 knockdown", "type": "cell-based", "procedure": "The RNA sequencing library was prepared by first extracting, total RNA using the GenElute Mammalian Total RNA Miniprep Kit (Sigma). RNA sample integrity was evaluated and RNAs with a RIN >7 were used.\nRNA fragmentation was carried out for 10 minutes, followed by first-and second-strand cDNA synthesis and adenylation using the TruSeq Stranded Total RNA with Illumina Ribo-Zero Plus rRNA Depletion (Illumina, San Diego, CA). The PCR products were run on a flow cell running a 50 base paired-end (2X50) recipe. The differential expression analysis was carried out using the DESeq2 (version 1.28.1) package (R version 4.0.1). As the count data was obtained in two batches, a batch correction term was introduced in the DESeq2 model using ComBat Seq to have better statistical power and control of false positives. The Ensembl IDs were converted to gene symbols and names using the org.Hs.eg.db package (version 3.11.4). […]"}, "[7]": {"tested_on": "Caspase-3", "test": "Caspase-3 fluorometric activity in SKOV3ip1CIS cells", "type": "cell-based, human", "conditions": "72 hours after transfection, vs NC-siRNA", "procedure": "Caspase-3 activity was quantified using the Caspase-3/CPP32 Fluorometric Assay Kit (BioVision CA, USA) as per the manufacturer's instructions. OVCAR3CIS (3.0×10^4 cells/mL) or SKOV3ip1CIS (3.5×10^4 cells/mL) were seeded into 10 cm Petri dishes and transfected with NC-siRNA or CASC10-siRNA (2). Twenty-four hours later, the media was replaced by regular media, and seventy-two hours after transfection, cells were collected, pellets lysed, and total protein concentration determined. Equal amounts of protein were mixed with 2×Reaction Buffer and 1 mM DEVD-AFC substrate in a 96-well plate and incubated at 37° C. for 2.5 hours. Fluorescence intensity at 400 nm excitation and 505 nm emission was measured."}}}
{"substance": "CASC10-siRNA (2): siRNA targeting CASC10 RNA, SEQ ID NO 3 and 4: 5′ GACUCUUGGAUCCAAGUUU(dT)(dT) 3′ / 5′ AAACUUGGAUCCAAGAGUC(dT)(dT) 3′ (chain 1 GACUCUUGGAUCCAAGUUUNN; chain 2 AAACUUGGAUCCAAGAGUCNN; 3' dTdT overhangs, chemistry not fully specified)", "values": [{"measurement": "cell viability", "setting": "[1]", "result": "did not significantly reduce cell viability"}, {"measurement": "reduction in the number of colonies", "setting": "[2]", "result": 86, "unit": "%"}, {"measurement": "reduction of invasion ability", "setting": "[3]", "result": 58, "unit": "%"}, {"measurement": "cell cycle progression", "setting": "[4]", "result": "cell cycle arrest in the G0/G1 to S phase"}, {"measurement": "Bcl-2 protein", "setting": "[5]", "result": "strong reduction"}, {"measurement": "CDK4 protein", "setting": "[5]", "result": "reduction"}, {"measurement": "Cyclin E1 protein", "setting": "[5]", "result": "reduction"}, {"measurement": "cleaved Caspase-3 protein", "setting": "[5]", "result": "significant increase"}, {"measurement": "cleaved Caspase-9 protein", "setting": "[5]", "result": "significant increase"}, {"measurement": "cleaved PARP-1 protein", "setting": "[5]", "result": "significant increase"}, {"measurement": "p27 protein levels", "setting": "[5]", "result": "reduction"}, {"measurement": "differentially expressed genes", "setting": "[6]; log2 fold change >1.2 or <−1.2, p-value ≤0.01, vs NC-siRNA", "result": 32}, {"measurement": "differentially abundant transcripts exclusive of CASC10-siRNA (2) compared with NC-siRNA", "setting": "[6]; padj <0.01", "result": "1,400"}, {"measurement": "increase in caspase-3 activity", "setting": "[7]", "result": 4, "unit": "fold"}]}
